Test system: 439559-082-T-J2-PDC spheroid viability
Test: Anticancer human tumor 439559-082-T-J2-PDC patient-derived colon adenocarcinoma cell line growth inhibition [POLQ]
Details: spheroids with HUVEC and MSC; for IC50: curve of first compound; for viability, T/C: stronger effect = lower value
Summary of the method: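 Three-cell-type spheroids modelling solid tumor plus stroma served as the readout system; POL inhibitors were tested individually and in combination, concentration ranges set by clinical Cmax where known.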

[1] = second compound 0.0316 µM, first compound 0.0316 µM
[2] = second compound 0.0316 µM, first compound 0.1 µM
[3] = second compound 0.0316 µM, first compound 0.316 µM
[4] = second compound 0.0316 µM, first compound 1 µM
[5] = second compound 0.0316 µM, first compound 3.16 µM
[6] = second compound 0.0316 µM, first compound 10 µM
[7] = second compound 0.1 µM, first compound 0.0316 µM
[8] = second compound 0.1 µM, first compound 0.1 µM
[9] = second compound 0.1 µM, first compound 0.316 µM
[10] = second compound 0.1 µM, first compound 1 µM
[11] = second compound 0.1 µM, first compound 3.16 µM
[12] = second compound 0.1 µM, first compound 10 µM
[13] = second compound 0.316 µM, first compound 0.0316 µM
[14] = second compound 0.316 µM, first compound 0.1 µM
[15] = second compound 0.316 µM, first compound 0.316 µM
[16] = second compound 0.316 µM, first compound 1 µM
[17] = second compound 0.316 µM, first compound 3.16 µM
[18] = second compound 0.316 µM, first compound 10 µM
[19] = second compound 1 µM, first compound 0.0316 µM
[20] = second compound 1 µM, first compound 0.1 µM
[21] = second compound 1 µM, first compound 0.316 µM
[22] = second compound 1 µM, first compound 1 µM
[23] = second compound 1 µM, first compound 3.16 µM
[24] = second compound 1 µM, first compound 10 µM
[25] = second compound 3.16 µM, first compound 0.0316 µM
[26] = second compound 3.16 µM, first compound 0.1 µM
[27] = second compound 3.16 µM, first compound 0.316 µM
[28] = second compound 3.16 µM, first compound 1 µM
[29] = second compound 3.16 µM, first compound 3.16 µM
[30] = second compound 3.16 µM, first compound 10 µM
[31] = second compound 10 µM, first compound 0.0316 µM
[32] = second compound 10 µM, first compound 0.1 µM
[33] = second compound 10 µM, first compound 0.316 µM
[34] = second compound 10 µM, first compound 1 µM
[35] = second compound 10 µM, first compound 3.16 µM
[36] = second compound 10 µM, first compound 10 µM
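Also: spheroids exposed to compounds for seven days before readout.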
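For viability, T/C in this document: 100% = DMSO vehicle control viability.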

C=CC(=O)N1CCN(c2nc(=O)n(-c3c(C)ccnc3C(C)C)c3nc(-c4c(O)cccc4F)c(F)cc23)C(C)C1 (stereo not drawn) + Nc1ccc(C#CCN(C(=O)Cc2ncc(C(F)(F)F)cc2C(F)(F)F)c2ccc(F)cc2)nn1
IC50 (second compound 0.0316 µM): > 10 µM
IC50 (second compound 0.1 µM): > 10 µM
IC50 (second compound 0.316 µM): > 10 µM
IC50 (second compound 1 µM): > 10 µM
IC50 (second compound 3.16 µM): > 10 µM
IC50 (second compound 10 µM): > 10 µM
viability, T/C [1]: 105%
viability, T/C [2]: 100%
viability, T/C [3]: 91.2%
viability, T/C [4]: 94.5%
viability, T/C [5]: 123%
viability, T/C [6]: 104%
viability, T/C [7]: 109%
viability, T/C [8]: 88.9%
viability, T/C [9]: 83.6%
viability, T/C [10]: 98.1%
viability, T/C [11]: 115%
viability, T/C [12]: 99.2%
viability, T/C [13]: 97.4%
viability, T/C [14]: 95.7%
viability, T/C [15]: 99.1%
viability, T/C [16]: 99.1%
viability, T/C [17]: 131%
viability, T/C [18]: 100%
viability, T/C [19]: 91.6%
viability, T/C [20]: 97.1%
viability, T/C [21]: 86.3%
viability, T/C [22]: 100%
viability, T/C [23]: 123%
viability, T/C [24]: 99.1%
viability, T/C [25]: 100%
viability, T/C [26]: 90.3%
viability, T/C [27]: 99.5%
viability, T/C [28]: 98.7%
viability, T/C [29]: 101%
viability, T/C [30]: 89.5%
viability, T/C [31]: 99.1%
viability, T/C [32]: 96.1%
viability, T/C [33]: 87.2%
viability, T/C [34]: 94.7%
viability, T/C [35]: 116%
viability, T/C [36]: 95.3%

CC(C)n1c(=O)n(C)c2cnc3cc(F)c(-c4ccc(OCCCN5CCCCC5)nc4)cc3c21 + Nc1ccc(C#CCN(C(=O)Cc2ncc(C(F)(F)F)cc2C(F)(F)F)c2ccc(F)cc2)nn1
IC50 (second compound 0.0316 µM): > 10 µM
IC50 (second compound 0.1 µM): > 10 µM
IC50 (second compound 0.316 µM): > 10 µM
IC50 (second compound 1 µM): > 10 µM
IC50 (second compound 3.16 µM): > 10 µM
IC50 (second compound 10 µM): > 10 µM
viability, T/C [1]: 88.2%
viability, T/C [2]: 110%
viability, T/C [3]: 113%
viability, T/C [4]: 105%
viability, T/C [5]: 110%
viability, T/C [6]: 96.7%
viability, T/C [7]: 106%
viability, T/C [8]: 113%
viability, T/C [9]: 104%
viability, T/C [10]: 122%
viability, T/C [11]: 102%
viability, T/C [12]: 112%
viability, T/C [13]: 103%
viability, T/C [14]: 100%
viability, T/C [15]: 102%
viability, T/C [16]: 109%
viability, T/C [17]: 110%
viability, T/C [18]: 105%
viability, T/C [19]: 111%
viability, T/C [20]: 99.7%
viability, T/C [21]: 101%
viability, T/C [22]: 116%
viability, T/C [23]: 89.3%
viability, T/C [24]: 113%
viability, T/C [25]: 98.1%
viability, T/C [26]: 103%
viability, T/C [27]: 101%
viability, T/C [28]: 115%
viability, T/C [29]: 102%
viability, T/C [30]: 126%
viability, T/C [31]: 102%
viability, T/C [32]: 102%
viability, T/C [33]: 110%
viability, T/C [34]: 96.7%
viability, T/C [35]: 127%
viability, T/C [36]: 117%

CCc1cc2c(N3CCc4c(cc(Cn5ccnc5)cc4-c4cn(C)nc4C(F)(F)F)C3=O)cc(C)nc2c(OC)n1 + Nc1ccc(C#CCN(C(=O)Cc2ncc(C(F)(F)F)cc2C(F)(F)F)c2ccc(F)cc2)nn1
IC50 (second compound 0.0316 µM): > 10 µM
IC50 (second compound 0.1 µM): > 10 µM
IC50 (second compound 0.316 µM): > 10 µM
IC50 (second compound 1 µM): > 10 µM
IC50 (second compound 3.16 µM): > 10 µM
IC50 (second compound 10 µM): > 10 µM
viability, T/C [1]: 97%
viability, T/C [2]: 96.8%
viability, T/C [3]: 95.3%
viability, T/C [4]: 93.2%
viability, T/C [5]: 98.2%
viability, T/C [6]: 92.7%
viability, T/C [7]: 108%
viability, T/C [8]: 87.9%
viability, T/C [9]: 89.7%
viability, T/C [10]: 95.9%
viability, T/C [11]: 91.9%
viability, T/C [12]: 96.2%
viability, T/C [13]: 102%
viability, T/C [14]: 92.2%
viability, T/C [15]: 95.7%
viability, T/C [16]: 96%
viability, T/C [17]: 96.1%
viability, T/C [18]: 86.5%
viability, T/C [19]: 94.5%
viability, T/C [20]: 95%
viability, T/C [21]: 89.3%
viability, T/C [22]: 85.3%
viability, T/C [23]: 104%
viability, T/C [24]: 88.6%
viability, T/C [25]: 101%
viability, T/C [26]: 93.3%
viability, T/C [27]: 85.9%
viability, T/C [28]: 86.3%
viability, T/C [29]: 92.6%
viability, T/C [30]: 86.3%
viability, T/C [31]: 98.5%
viability, T/C [32]: 95.3%
viability, T/C [33]: 80.4%
viability, T/C [34]: 96%
viability, T/C [35]: 89.1%
viability, T/C [36]: 86.8%

COc1cc2cc(C(=O)CCC(=O)O)sc2cc1OC + Nc1ccc(C#CCN(C(=O)Cc2ncc(C(F)(F)F)cc2C(F)(F)F)c2ccc(F)cc2)nn1
IC50 (second compound 0.0316 µM): > 10 µM
IC50 (second compound 0.1 µM): > 10 µM
IC50 (second compound 0.316 µM): > 10 µM
IC50 (second compound 1 µM): > 10 µM
IC50 (second compound 3.16 µM): > 10 µM
IC50 (second compound 10 µM): > 10 µM
viability, T/C [1]: 99.2%
viability, T/C [2]: 99.3%
viability, T/C [3]: 96.7%
viability, T/C [4]: 95.8%
viability, T/C [5]: 105%
viability, T/C [6]: 97.5%
viability, T/C [7]: 95%
viability, T/C [8]: 107%
viability, T/C [9]: 93.1%
viability, T/C [10]: 99.2%
viability, T/C [11]: 93%
viability, T/C [12]: 98.7%
viability, T/C [13]: 94.5%
viability, T/C [14]: 101%
viability, T/C [15]: 97.4%
viability, T/C [16]: 93.4%
viability, T/C [17]: 98.1%
viability, T/C [18]: 91.8%
viability, T/C [19]: 96.2%
viability, T/C [20]: 103%
viability, T/C [21]: 90.3%
viability, T/C [22]: 93.6%
viability, T/C [23]: 99.3%
viability, T/C [24]: 88.4%
viability, T/C [25]: 90.5%
viability, T/C [26]: 88.8%
viability, T/C [27]: 98.6%
viability, T/C [28]: 91.3%
viability, T/C [29]: 97%
viability, T/C [30]: 102%
viability, T/C [31]: 107%
viability, T/C [32]: 101%
viability, T/C [33]: 98.2%
viability, T/C [34]: 98.8%
viability, T/C [35]: 96.4%
viability, T/C [36]: 82.6%

Source: PubChem BioAssay AID1963841 (Molecular Pharmacology Branch, DTP, NCI, 2024)
